# Columns and labels:
# [1] = Body weight and weight change rate of EAU rats (Example 6); assay type: in vivo, Lewis rats; conditions: 0.4 mg/kg PO QD
# Description: Wherein, Day 0 referred to the day of immunization. The body weight of each rat was monitored twice a week after immunization.
# (§1) Dosing started from Day 0 accurately according to the animal body weight for a total of 16 days.
# [2] = system: IRBP R16-induced experimental autoimmune uveoretinitis (EAU); experiment: Bovine IRBP R16-induced experimental autoimmune uveoretinitis (EAU): clinical score, AUC, incidence (Example 6); assay type: in vivo, Lewis rats; conditions: for Incidence rate (%): 0.4 mg/kg PO QD
# Procedure: On Day-1 (i.e., the day before immunization, hereinafter), 60 rats were randomly divided into 6 groups (n=10) based on body weight (see Table 18). On Day 0, rats in Groups 2 to 6 were anesthetized with isoflurane, followed by subcutaneous injection of a total of […] of emulsion resulting from IRBP R16 and CFA emulsified at a 1:1 v/v ratio, on both thighs (50 μL at each site) and tail head (100 μL), respectively.
# From Day 0 after immunization, the eyes of rats were checked daily with a flashlight by gently opening the upper and lower eyelids of the test rats, and the incidence of disease was recorded. Clinical symptoms were scored in a blind manner from the onset of disease to the end of the study according to the criteria listed in Table 17.
# as §1
# The results were expressed as “mean±standard error”. Graphpad Prism or SPSS was used for statistical analysis, and p<0.05 was considered statistically significant.
# [3] = Body weight and spleen weight in IMQ-induced psoriasis mice (Example 8); assay type: in vivo, Balb/c mice; conditions: 2 mg/kg topical QD × 7 days (G4)
# Description: 4) Spleen samples were collected and weighed (FIG. 23).
# Body weight was monitored daily throughout the study. Continuous use of IMQ cream could reduce the mean body weight of the solvent group. […] However, there was no statistically significant difference between the treatment and solvent groups (FIG. 21)
# [4] = system: imiquimod (IMQ)-induced psoriasis; experiment: Imiquimod (IMQ)-induced psoriasis in mice: erythema, scales, thickness, total score, AUC (Example 8); assay type: in vivo, Balb/c mice; parameters: key to erythema score / scales score / thickness score: 0 = none, 1 = mild, 2 = moderate, 3 = obvious/severe; key to total score of erythema + scales + thickness: sum of three 0-3 scores (erythema + scales + thickening), 0-9; conditions: for erythema score / scales score: 2 mg/kg topical QD; for thickness score / total score of erythema + scales + thickness: positive control group
# Procedure: All mice were shaved with a pet shaver to get an area of 2×3 cm on the back one day before the start of the experiment.
# 65 animals were randomly divided into groups according to body weight, and the dosing regimen was as follows.
# Imiquimod (IMQ) cream: 62.5 mg of IMQ cream for each mouse in G2 to G7; Dexamethasone (DEX) ointment: 70 mg of ointment for each mouse in G4;
# Tofacitinib: Tofacitinib was dissolved in dimethyl sulfoxide to 5 mg/mL, and 50 μL was added to IMQ cream for daily treatment.
# Mice in Groups 2 to 7 received daily topical doses of 62.5 mg of IMQ cream on their shaved back from Day 0 to Day 7.
# Dosing of the test compounds and reference substance was carried out according to Table 29 for 7 consecutive days.
# To assess the severity of inflammation of skin on the back, the skin on the back was scored according to Table 30. Erythema, scales and thickening were scored independently on a scale of 0 to 3, 0, none; 1. mild; 2. moderate; 3. obvious/severe.
# The inhibition rate was calculated according to the following formula: Inhibition rate=[AUC (solvent)−AUC (treatment)]/AUC (solvent)×100%. Wherein, solvent referred to the solvent group corresponding to the route of administration.
# [5] = system: bleomycin-induced skin fibrosis; experiment: Bleomycin-induced skin fibrosis in mice: skin histopathology (dermal thickness, capillary density score, inflammatory cell infiltration score); assay type: in vivo, male C57BL/6 mice; conditions: 50 mg/kg IP QD, 28 days
# Procedure: The skin tissue of the lesioned skin was subjected to dehydration, embedding and sectioning according to the pathology SOP, and the tissue was stained by HE and Masson staining. Histopathological analysis was performed according to the following methods:
# Masson-stained sections were panoramically scanned by using Nanozomer S210 and the scanned images were subjected to quantitative analysis using Visiopharm VIS6.0 software. The degree of fibrosis was currently represented by the dermal thickness after Masson staining.
# The fields of observation was selected in the dermis layer of the lesioned area (the number of fields selected was determined according to the size of the lesioned area) and scored according to the area occupied by capillaries in the area: • 0: No capillary formed • 1: The proportion of capillaries formed was less than 25%; • 2: The proportion of capillaries formed was 25-50%; • 3: The proportion of capillaries formed was 50-75%; • 4: The proportion of capillaries formed was greater than 75%. 3.8.3 Inflammatory cell infiltration score of dermis layer
# The fields of observation was selected in the dermis layer of the lesioned area (the number of fields selected was determined according to the size of the lesioned area) and scored according to the degree of inflammatory cell infiltration: • 0: No inflammatory cell infiltration: • 1: A small amount of focal inflammatory cell infiltration; • 2: Scattered diffuse inflammatory cell infiltration: • 3: A large amount of diffuse inflammatory cell infiltration; • 4: A large amount of agglomerated inflammatory cell infiltration.
# [6] = system: bleomycin-induced skin fibrosis; experiment: Bleomycin-induced skin fibrosis in mice: body weight, spleen weight, spleen/body weight ratio (Example 5); assay type: in vivo, male C57BL/6 mice; conditions: 50 mg/kg IP QD, 28 days
# Procedure: Isoflurane (2.0 to 2.5%) was used to anesthetize the animals. The fur of the back was removed, and a 1 cm^2 area was selected for intradermal injection of bleomycin (0.3 mg/kg, 100 μL) every two days to establish a skin fibrosis model.
# Dosing started on the day of model establishment. Each animal was weighed for the animal body weight before dosing to calculate the volume of administration, wherein the period of administration was 28 days. […] Frequency of administration: twice a day for Nintedanib group and once a day for other groups.
# The change in animal body weight was recorded twice a week from the date of model establishment. The clinical manifestations of animals, such as shortness and difficulty of breath, abdominal suction, decreased activity and malaise, were closely observed.
# Animals were weighed at the experimental endpoints and the body weight was recorded to calculate the volume of administration. 6 h after dosing, firstly, whole blood was collected from the orbital venous plexus of mice and subjected to blood routine test using an automated Hematology analyzer (Sysmex XS-800i). […]
# Then the animals were euthanized by intraperitoneal injection of pentobarbital sodium. The material and order of dissection were as follows: Spleen was collected and weighed and the weight was recorded. […]
# The mean±SEM was calculated using Graphpad prism 6.0 software. […]
smiles,measurement,setting,value
C[C@@H]1C[C@H]2[C@@H]3CCC4=CC(=O)C=C[C@]4(C)[C@@]3(F)[C@@H](O)C[C@]2(C)[C@@]1(O)C(=O)CO [Dexamethasone],Rat body weight,[1]; Day 2,174.65 g
same,Weight change rate (%),[1]; Day 2,−7.26%
same,Rat body weight,[1]; Day 6,166.65 g
same,Weight change rate (%),[1]; Day 6,−11.53%
same,Rat body weight,[1]; Day 9,164.05 g
same,Weight change rate (%),[1]; Day 9,−12.92%
same,Rat body weight,[1]; Day 13,162.10 g
same,Weight change rate (%),[1]; Day 13,−13.99%
same,Rat body weight,[1]; Day 16,161.29 g
same,Weight change rate (%),[1]; Day 16,−14.44%
same,Rat body weight,[1]; Day −1,188.46 g
same,Weight change rate (%),[1]; Day −1,0.00%
same,Area under the curve (AUC) of clinical score,[2]; 0.4 mg/kg PO QD × 16 days,7.68
same,Incidence rate (%),[2]; Day 0,0%
same,Incidence rate (%),[2]; Day 1,0%
same,Incidence rate (%),[2]; Day 2,0%
same,Incidence rate (%),[2]; Day 3,0%
same,Incidence rate (%),[2]; Day 4,0%
same,Incidence rate (%),[2]; Day 5,0%
same,Incidence rate (%),[2]; Day 6,0%
same,Incidence rate (%),[2]; Day 7,10%
same,Incidence rate (%),[2]; Day 8,20%
same,Incidence rate (%),[2]; Day 9,100%
same,Incidence rate (%),[2]; Day 10,100%
same,Incidence rate (%),[2]; Day 11,90%
same,Incidence rate (%),[2]; Day 12,90%
same,Incidence rate (%),[2]; Day 13,90%
same,Incidence rate (%),[2]; Day 14,90%
same,Incidence rate (%),[2]; Day 15,90%
same,Incidence rate (%),[2]; Day 16,90%
same,Incidence rate (%),[2]; Day −1,0%
same,inhibition at 0.4 mg/kg,"[2]; Rattus norvegicus, 384 h, 0.4 mg/kg PO QD × 16 days, vs model control, read-out: Inhibition rate of clinical score AUC",84.5%
same,body weight (weight loss),[3],weight loss was more dramatic
same,erythema score,[4]; Day 0,0
same,scales score,[4]; Day 0,0
same,thickness score,[4]; Day 0,0
same,total score of erythema + scales + thickness,[4]; Day 0,0
same,erythema score,[4]; Day 1,0
same,scales score,[4]; Day 1,0
same,thickness score,[4]; Day 1,0
same,total score of erythema + scales + thickness,[4]; Day 1,0
same,erythema score,[4]; Day 2,0
same,scales score,[4]; Day 2,0
same,thickness score,[4]; Day 2,0
same,total score of erythema + scales + thickness,[4]; Day 2,0
same,erythema score,[4]; Day 3,0.2
same,scales score,[4]; Day 3,0
same,thickness score,[4]; Day 3,0
same,total score of erythema + scales + thickness,[4]; Day 3,0
same,erythema score,[4]; Day 4,0.1
same,scales score,[4]; Day 4,0.2
same,thickness score,[4]; Day 4,0
same,total score of erythema + scales + thickness,[4]; Day 4,0.3
same,erythema score,[4]; Day 5,0.1
same,scales score,[4]; Day 5,0.2
same,thickness score,[4]; Day 5,0
same,total score of erythema + scales + thickness,[4]; Day 5,0.3
same,erythema score,[4]; Day 6,0
same,scales score,[4]; Day 6,0.2
same,thickness score,[4]; Day 6,0
same,total score of erythema + scales + thickness,[4]; Day 6,0.2
same,erythema score,[4]; Day 7,0
same,scales score,[4]; Day 7,0.1
same,thickness score,[4]; Day 7,0
same,total score of erythema + scales + thickness,[4]; Day 7,0.1
same,inhibition at 2 mg/kg,"[4]; Mus musculus, 168 h, 2 mg/kg topical QD × 7 days, vs corresponding solvent group, read-out: inhibition rate (AUC of total clinical score)",97%
Cc1ccc(NC(=O)c2ccc(CN3CCN(C)CC3)cc2)cc1Nc1nccc(-c2cccnc2)n1 [Imatinib],inflammatory cell infiltration of the lesioned skin,[5],visibly reduce
same,subdermal capillary hyperplasia,[5],visibly reduce
same,death of animals,[6],One animal in Imatinib group died on Day 28
